Results on 3 molecules are retold here after patent US9061984B2 (University of Louisville Research Foundation, Inc., priority 2008, dated 2015).

Series [1] relates to Trypanosoma cruzi (Tulahuen C4). Put plainly: In vitro anti-T. cruzi activity (β-galactosidase CPRG colorimetric assay in VERO monolayer). It is filed as cell-based.
Series [2] concerns axenic amastigotes of L. amazonensis (strain MHOM/BR/76/LTB-012). The conditions noted are these: Table 8b.
Series [3] in a line: Cytotoxicity on VERO cells (MTT), anti-T. cruzi study. The note with it: African green monkey, VERO cells.
Series [4] in a line: Toxicity to peritoneal macrophages (Trypan Blue count). The series is classed as cell-based, BALB/C mouse. The conditions noted are these: BALB/C, mouse.
The subject of a further series is M. tuberculosis MDR. Put plainly: Anti-tuberculosis bioassay (tetrazolium microplate MIC). The series is classed as cell-based. The conditions noted are these: Mycobacterium tuberculosis, read-out: Mycobacterium MIC MDR.
The test system of a further series is L. braziliensis PER006. Put plainly: Activity against macrophages infected with Leishmania amastigotes. The conditions noted are these: Leishmania braziliensis, Macrophage, read-out: IC50 L. braziliensis PER006.
Series [5] has as its system axenic amastigotes of L. amazonensis (strain MHOM/BR/76/LTB-012). Put plainly: microbe, parasite or virus in culture. The conditions noted are these: Leishmania amazonensis.
The subject of another series is MCF-7 cells. Put plainly: Cell growth inhibition bioassay (sulforhodamine B). The series is classed as cell-based, human. The conditions noted are these: 48 h, SRB. In short, it runs like this: (§1)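 SRB colorimetric read-out; % growth inhibition vs solvent control. Human lines: MCF-7 (breast adenocarcinoma), DU145 (prostate carcinoma), PC3 (prostate adenocarcinoma), H460 (large cell lung cancer).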

The test system of another series is HT-29 cells. Put plainly: Cell growth inhibition bioassay (sulforhodamine B). It is filed as cell-based, human. The conditions noted are these: 48 h, SRB. In short, it runs like this: (§2)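 Cells were exposed to compound alongside matched solvent controls, then stained with sulforhodamine B. Percent growth inhibition was calculated from dye absorbance against the control.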

In the next series the test system is DU145 cells. Put plainly: Cell growth inhibition bioassay (sulforhodamine B). It is filed as cell-based, human. The note with it: 48 h, SRB. The essentials: as §1
The test system of the next series is H460 cells. Put plainly: Cell growth inhibition bioassay (sulforhodamine B). It is filed as cell-based, human. The note with it: 48 h, SRB. The essentials: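 Growth inhibition was measured colorimetrically with sulforhodamine B staining and expressed as percent inhibition relative to solvent-treated controls. Cell lines were human: MCF-7 breast adenocarcinoma, DU145 and PC3 prostate carcinoma/adenocarcinoma, H460 large cell lung cancer.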

In the next series the test system is M-14 cells. Put plainly: Cell growth inhibition bioassay (sulforhodamine B). It is filed as cell-based, human. The note with it: 48 h, SRB. The essentials:
as §2

The subject of a further series is K562 cells. Put plainly: Cell growth inhibition bioassay (sulforhodamine B). The series is classed as cell-based, human. The conditions noted are these: 48 h, SRB. The essentials:
as §2

In series [6] the test system is VERO cells. Put plainly: VERO cells IC50 (Table 5). The series is classed as cell-based, African green monkey. The conditions noted are these: Chlorocebus sabaeus.
In a further series the test system is L. amazonensis. The note with it: intralesional, compounds 5 mg/kg/day, Glucantime 33 mg Sb(v)/kg/day; for Mean lesion wt (mg) (±SD): BALB/c mice n=10; for % Variation of lesion wt / % reduction of parasite burden in the lesion: vs control.
For series [7], the system named is VERO cells. Put plainly: Cell growth inhibition bioassay (sulforhodamine B). The series is classed as cell-based, African Green Monkey. The conditions noted are these: 48 h, SRB. The essentials: as §2
The test system of series [8] is M. tuberculosis H37Rv. Put plainly: Conventional aerobic (MABA) culture assay, luminescence MIC. The series is classed as cell-based, Mycobacterium tuberculosis. The note with it: for MIC: Mycobacterium tuberculosis, 168 h.
The test system of a further series is L. peruviana LCA08. Put plainly: Activity against macrophages infected with Leishmania amastigotes. The note with it: Leishmania peruviana, Macrophage, read-out: IC50 L. peruviana LCA08.
Another series relates to 3T3 cells. Put plainly: Cell growth inhibition bioassay (sulforhodamine B). The series is classed as cell-based, mouse. The conditions noted are these: 48 h, SRB. The essentials: as §2
Series [9] relates to M. tuberculosis H37Rv. Put plainly: Anti-tuberculosis bioassay (tetrazolium microplate MIC). The series is classed as cell-based. The note with it: Mycobacterium tuberculosis, read-out: Mycobacterium MIC H37Rv, Table 5.
Series [10] has as its system VERO cells.
Another series concerns peritoneal macrophages. Put plainly: Toxicity to peritoneal macrophages (Trypan Blue count). It is filed as cell-based, BALB/C mouse.
A short description of a further series: in vitro. The conditions noted are these: African green monkey.

≈ marks a conversion by molar mass, not a printed value. Where two headings read alike, the source gives them in different places.

`Clc1ccc(/C=N\Nc2ncnc3sc4c(c23)CCCC4)cc1` [II-28]: the “Selectivity Index Lab B” value in [1] (IC50, VERO/IC50, T. cruzi, Lab B) is given as 1.6. Further, the inhibition at 10 µg/mL in series [1] (Trypanosoma cruzi, TULAHUEN, Vero, 120 h, 10 μg/mL of each compound, 120 hours, read-out: T. cruzi Inhib. (%)) was 74.7%. For the same molecule, the half-inhibitory concentration (IC50) came out at 1.6 µg/mL (≈ 4.67 µM) in [1] (Trypanosoma cruzi, TULAHUEN, Vero, Lab A, read-out: T. cruzi IC50 Lab A); 4.5 µg/mL (≈ 13.1 µM) in [1] (Trypanosoma cruzi, TULAHUEN, Vero, Lab B, read-out: T. cruzi IC50 Lab B); 6.5 µg/mL (≈ 19 µM) in series [1] (Trypanosoma cruzi, TULAHUEN, Vero, Table 2, read-out: IC50 - T. cruzi); 7 µg/mL (≈ 20.4 µM) in [3] (Cytotoxicity VERO Lab B, Lab B); 27 µg/mL (≈ 78.8 µM) in [3] (IC50 - VERO Cytotoxicity, Table 2); 5.9 µg/mL (≈ 17.2 µM) with L. braziliensis PER006. Moreover, the IC50 in series [5] (read-out: IC50 Cytotoxicity Against Amastigotes) was 3.3 µM; in series [5] (read-out: L. amazonensis IC50) it was 0.6 µM; in the series with VERO cells [6] it was more than 80 µg/mL; in the series with L. peruviana LCA08, more than 10 µg/mL. Further, the “Selectivity Index” value in series [2] was determined as 85.2. Besides, the IC50 at 48 h in series [4] (Cytotoxicity Macrophages IC50) is 48.8 µM; in series [4] (IC50 Cytotoxicity Against Macrophages), more than 10 µM. The minimal inhibitory concentration (MIC) was 6.25 µg/mL (≈ 18.2 µM) in the series on M. tuberculosis MDR; more than 100 µg/mL against M. tuberculosis H37Rv [8] (aerobic, 7 days, H37Rv); 12.5 µg/mL (≈ 36.5 µM) with M. tuberculosis H37Rv [9]. Further, the 50% growth inhibitory concentration (GI50) with MCF-7 cells (Homo sapiens, MCF7, read-out: GI50 in indicated cell line: MCF-7) was 2.9 µg/mL (≈ 8.46 µM); with HT-29 cells (Homo sapiens, HT-29, read-out: GI50 in indicated cell line: HT-29), 5.2 µg/mL (≈ 15.2 µM); in the series with DU145 cells (Homo sapiens, DU-145, read-out: GI50 in indicated cell line: DU145) it was 5 µg/mL (≈ 14.6 µM); in the series on H460 cells (Homo sapiens, NCI-H460, read-out: GI50 in indicated cell line: H460), 4.4 µg/mL (≈ 12.8 µM); in the series with M-14 cells (Homo sapiens, M14, read-out: GI50 in indicated cell line: M-14), more than 62.5 µg/mL; in the series with K562 cells (Homo sapiens, K562, read-out: GI50 in indicated cell line: K562), 2.3 µg/mL (≈ 6.71 µM). Also, the GI50 is 3 µg/mL (≈ 8.75 µM) in the series on VERO cells [7] (Chlorocebus sabaeus, Vero, read-out: GI50 in indicated cell line: VERO) and 6.4 µg/mL (≈ 18.7 µM) in the series on 3T3 cells (Mus musculus, NIH3T3, read-out: GI50 in indicated cell line: 3T3). Moreover, the “Mean lesion size (mm)” value in the series on L. amazonensis (after 4 weeks treatment) is recorded as 3.6 mm; in the series on L. amazonensis (after 7 weeks treatment), 5.2 mm. Moreover, the “Mean parasite quantification (per 10^6) in lesion per mg (±SD)” value in the series with L. amazonensis (after 4 weeks treatment) was 0.92 (±0.32) amastigotes (×10^6)/mg; in the series on L. amazonensis (after 7 weeks treatment) it was 1.26 (±0.02) amastigotes (×10^6)/mg. In addition, the “Mean lesion wt (mg) (±SD)” value is 60.4 (±31.3) mg with L. amazonensis (after 4 weeks treatment) and 169.1 (±15.3) mg in the series with L. amazonensis (after 7 weeks treatment). Also, the “% Variation of lesion wt” value in the series with L. amazonensis (after 4 weeks treatment) is on record as 0%; in the series on L. amazonensis (after 7 weeks treatment), −90%. For the same molecule, the entries for the “% reduction of parasite burden in the lesion” value in the series with L. amazonensis (after 4 weeks treatment) and with L. amazonensis (after 7 weeks treatment) were 46% and 25%, respectively.
Turning to `CC(C)=NNc1ncnc2sc3c(c12)CCCC3` [II-44], the “T. cruzi IC50 Lab A” value in series [1] (Lab A) came to 3.2 µg/mL. In addition, the “T. cruzi IC50 Lab B” value in [1] (Lab B) was 3.7 µg/mL. Besides, the “Cytotoxicity VERO Lab B” value in the series on VERO cells [10] is 10.0. The IC50 in series [2] (read-out: L. amazonensis IC50) was 10.6 µM; in the series with peritoneal macrophages, 62 µM. For the same molecule, the “GI50 in indicated cell line: MCF-7” value with MCF-7 cells is 3.2 µg/mL (≈ 12.3 µM). The “GI50 in indicated cell line: HT-29” value in the series on HT-29 cells was found to be 8.6 µg/mL (≈ 33 µM). In addition, the “GI50 in indicated cell line: DU145” value in the series on DU145 cells is 3.0 µg/mL (≈ 11.5 µM). Further, the “GI50 in indicated cell line: H460” value in the series with H460 cells was found to be 2.4 µg/mL (≈ 9.22 µM). Further, the “GI50 in indicated cell line: M-14” value in the series on M-14 cells is 6.1 µg/mL (≈ 23.4 µM). The “GI50 in indicated cell line: K562” value in the series on K562 cells is 3.5 µg/mL (≈ 13.4 µM). In addition, in the series on VERO cells [7], the “GI50 in indicated cell line: VERO” value came to 3.7 µg/mL (≈ 14.2 µM). The “MIC MABA” value in the series on M. tuberculosis H37Rv [8] (aerobic, 7 days, H37Rv) came to 62.4 µg/mL (≈ 240 µM). Moreover, in the series on 3T3 cells, the “GI50 in indicated cell line: 3T3” value was less than 0.98 µg/mL. Moreover, the “Cytotoxicity VERO cell” value in the series with VERO cell was 32.7 µg/mL.
For the molecule `CO[C@H]1/C=C/O[C@@]2(C)Oc3c(C)c(O)c4c(O)c(c(/C=N/N5CCN(C)CC5)c(O)c4c3C2=O)NC(=O)/C(C)=C\C=C\[C@H](C)[C@H](O)[C@@H](C)[C@@H](O)[C@@H](C)[C@H](OC(C)=O)[C@@H]1C` [Rifampin, reference compound], the midpoint of inhibition in the series “in vitro”, the IC50, lay at 97.2 µg/mL (≈ 118 µM). This molecule returned a minimum inhibitory concentration (MIC) in the series on M. tuberculosis H37Rv [8] (aerobic, 7 days, H37Rv) of 0.09 µg/mL (≈ 0.109 µM). For the same molecule, the “Selectivity Index H37Rv” value in the series on M. tuberculosis H37Rv [8] (VERO vs MABA MIC) is 1025.8.
